According to ChEMBL document CHEMBL1201862, “PubChem BioAssay data set” (2004):
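In this assay, cells in 96-well plates receive the compound at five concentrations for 48 hours. Endpoints are linearly interpolated between the surrounding concentrations. The concentration for 50% growth inhibition is given as GI50.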 Active and inactive are the calls of the source. Rule as the data show it: active = GI50 up to about 1.1 µM and inactive = higher.

Key:
Assay in all cases: NCI tumour cell line growth inhibition, 48 h
UO-31 = test system: UO-31
NCI-H522 = test system: NCI-H522
HCT-116 = test system: HCT-116
A549 = test system: A549
OVCAR-8 = test system: OVCAR-8
SR = test system: SR
NCI-H460 = test system: NCI-H460
SK-MEL-28 = test system: SK-MEL-28
RXF 393 = test system: RXF 393
COLO 205 = test system: COLO 205
MDA-MB-231 = test system: MDA-MB-231
SF-268 = test system: SF-268
NCI-H226 = test system: NCI-H226
MCF7 = test system: MCF7
UACC-257 = test system: UACC-257
CCRF-CEM = test system: CCRF-CEM
NCI-H23 = test system: NCI-H23
UACC-62 = test system: UACC-62
M14 = test system: M14
OVCAR-4 = test system: OVCAR-4

Measured: GI50

COc1ccc(/C=C/C(=O)c2cc(CN(C)C)c(O)c(CN(C)C)c2)cc1
inactive: UO-31 25.2 µM | NCI-H522 20.5 µM | HCT-116 24.2 µM | A549 27.6 µM | OVCAR-8 29.8 µM | SR 31.9 µM | NCI-H460 18.7 µM | SK-MEL-28 54.2 µM | RXF 393 31.7 µM | COLO 205 18.4 µM | MDA-MB-231 23.2 µM | SF-268 75.9 µM | NCI-H226 40.1 µM | MCF7 36.6 µM | UACC-257 16.5 µM | CCRF-CEM 35.2 µM | NCI-H23 46.9 µM

Clc1cccc(/C=c2\nc(-c3ccccc3)n3c2nc2ccccc23)c1
inactive: UO-31 > 100 µM | UACC-62 21.5 µM | HCT-116 > 100 µM | A549 > 100 µM | OVCAR-8 > 100 µM | SR > 100 µM | NCI-H460 > 100 µM | SK-MEL-28 > 100 µM | RXF 393 31.9 µM | COLO 205 > 100 µM | MDA-MB-231 42.7 µM | M14 > 100 µM | OVCAR-4 > 100 µM | SF-268 40.8 µM | NCI-H226 > 100 µM | MCF7 > 100 µM | UACC-257 > 100 µM | CCRF-CEM > 100 µM | NCI-H23 72.8 µM

CCCNc1ncnc2[nH]ncc12
inactive: UO-31 > 100 µM | UACC-62 > 100 µM | NCI-H522 > 100 µM | HCT-116 > 100 µM | A549 > 100 µM | OVCAR-8 > 100 µM | SR > 100 µM | NCI-H460 > 100 µM | SK-MEL-28 > 100 µM | RXF 393 > 100 µM | COLO 205 > 100 µM | MDA-MB-231 > 100 µM | M14 > 100 µM | OVCAR-4 > 100 µM | SF-268 > 100 µM | MCF7 91.4 µM | UACC-257 > 100 µM | CCRF-CEM > 100 µM | NCI-H23 > 100 µM

CC(C)(C)c1cc(/C=C2/NC(=O)NC2=O)cc(C(C)(C)C)c1O
inactive: UACC-62 16.5 µM | NCI-H522 12 µM | HCT-116 14.1 µM | OVCAR-8 16.3 µM | SR 12.8 µM | NCI-H460 14.5 µM | SK-MEL-28 17.5 µM | RXF 393 6.25 µM | COLO 205 14.4 µM | MDA-MB-231 12.6 µM | OVCAR-4 11.4 µM | SF-268 14.3 µM | NCI-H226 14.8 µM | MCF7 13 µM | UACC-257 16 µM | CCRF-CEM 11.9 µM | NCI-H23 15 µM

Cc1c(/N=N/c2ccccc2)c(C)n(C2OC(CO)C(O)C(O)C2O)c(=S)c1C#N (stereo unspecified)
inactive: UO-31 26.2 µM | UACC-62 1.15 µM | HCT-116 21.1 µM | A549 35.5 µM | SR 21.4 µM | NCI-H460 31.3 µM | SK-MEL-28 32.7 µM | RXF 393 33 µM | COLO 205 42 µM | MDA-MB-231 45.3 µM | M14 25.6 µM | OVCAR-4 45.8 µM | SF-268 17 µM | MCF7 22.8 µM | UACC-257 33.2 µM | CCRF-CEM 22.5 µM | NCI-H23 27.3 µM

COc1ccc(-n2c(C)nc3ccc(NC4OC(COC(C)=O)C(OC(C)=O)C(OC(C)=O)C4OC(C)=O)cc3c2=O)cc1 (stereo unspecified)
inactive: UO-31 > 100 µM | UACC-62 67 µM | NCI-H522 21.8 µM | HCT-116 21.8 µM | OVCAR-8 32.9 µM | SR 73.3 µM | NCI-H460 > 100 µM | SK-MEL-28 34 µM | RXF 393 27.8 µM | COLO 205 18.6 µM | MDA-MB-231 > 100 µM | OVCAR-4 > 100 µM | SF-268 > 100 µM | NCI-H226 32.7 µM | MCF7 45.9 µM | UACC-257 > 100 µM | NCI-H23 60.4 µM

Cc1ccc(C)c2c1NC(=O)/C2=N\Nc1ccccc1[N+](=O)[O-]
inactive: UO-31 > 100 µM | UACC-62 > 100 µM | NCI-H522 > 100 µM | HCT-116 > 100 µM | A549 > 100 µM | SR 1.61 µM | NCI-H460 > 100 µM | SK-MEL-28 > 100 µM | RXF 393 > 100 µM | COLO 205 > 100 µM | MDA-MB-231 > 100 µM | M14 > 100 µM | OVCAR-4 38 µM | SF-268 > 100 µM | MCF7 > 100 µM | UACC-257 > 100 µM | CCRF-CEM > 100 µM | NCI-H23 > 100 µM

COc1ccc(-c2ncnc(-c3ccc(OC)c(OC)c3)n2)cc1OC
inactive: UO-31 91 µM | UACC-62 > 100 µM | NCI-H522 > 100 µM | HCT-116 > 100 µM | A549 > 100 µM | OVCAR-8 > 100 µM | SR 45.2 µM | SK-MEL-28 > 100 µM | RXF 393 36.5 µM | COLO 205 > 100 µM | MDA-MB-231 > 100 µM | M14 > 100 µM | SF-268 > 100 µM | NCI-H226 > 100 µM | MCF7 > 100 µM | UACC-257 > 100 µM | CCRF-CEM > 100 µM | NCI-H23 > 100 µM

N#CCc1nc(-c2ccccc2)n[nH]1
inactive: UO-31 > 100 µM | UACC-62 > 100 µM | NCI-H522 > 100 µM | HCT-116 > 100 µM | A549 > 100 µM | OVCAR-8 > 100 µM | SR > 100 µM | NCI-H460 > 100 µM | RXF 393 > 100 µM | COLO 205 > 100 µM | MDA-MB-231 > 100 µM | M14 > 100 µM | OVCAR-4 > 100 µM | SF-268 > 100 µM | MCF7 > 100 µM | UACC-257 > 100 µM | CCRF-CEM > 100 µM | NCI-H23 > 100 µM

CCCNC(=S)N/N=C/c1cccc(C)n1
inactive: UO-31 17.2 µM | UACC-62 20.8 µM | NCI-H522 4.04 µM | HCT-116 7.18 µM | A549 26.4 µM | OVCAR-8 28 µM | SR 15 µM | RXF 393 28.1 µM | COLO 205 3.94 µM | MDA-MB-231 33.7 µM | M14 12.3 µM | OVCAR-4 39.4 µM | NCI-H226 19.8 µM | MCF7 41.2 µM | UACC-257 33 µM | CCRF-CEM 2.69 µM | NCI-H23 28.9 µM

c1ccc2c(c1)OC(N1CCCC1)c1cnc(N3CCOCC3)nc1-2 (stereo unspecified)
inactive: UO-31 19.3 µM | UACC-62 43.1 µM | HCT-116 > 100 µM | A549 57.7 µM | OVCAR-8 > 100 µM | SR 38.5 µM | NCI-H460 53.3 µM | SK-MEL-28 > 100 µM | RXF 393 21.7 µM | COLO 205 51.2 µM | MDA-MB-231 45.1 µM | M14 57.8 µM | OVCAR-4 41.6 µM | SF-268 40.6 µM | NCI-H226 30.6 µM | MCF7 10.8 µM | UACC-257 25.2 µM | CCRF-CEM 31.9 µM | NCI-H23 15.8 µM
